Four compounds from PubChem BioAssay AID1918940 (Molecular Pharmacology Branch, DTP, NCI, 2023) can be followed below.

The test has as its system NCI-H211 complex spheroid viability. Briefly: Anticancer human tumor NCI-H211 cell line growth inhibition [LSD1].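 On all read-outs here: luminescent viability read after seven days of drug exposure.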 The note with it: for viability, T/C: stronger effect = lower value. An excerpt:
Multicellular complex tumor spheroid response to LSD1 Inhibitor Iadademstat in combination with a variety of drugs and investigational agents in selected tumor cell lines
The current study was undertaken to assess response to LSD1 inhibitors in combination with standard-of-care drugs and investigational agents in solid tumor complex spheroid models as well as in the K-562 leukemia. Complex spheroids include a stromal component modeled by human endothelial cells (HUVEC) and fibroblasts modeled by human mesenchymal stem cells (MSCs). The concentration ranges selected for each drug and investigational agent were based upon clinically achievable concentrations if the clinical Cmax of the agent was known.
Compounds. The drugs and investigational agents used in this study are listed on Table 1. All of the agents used, including staurosporine (NSC755774) and gemcitabine (NSC613327), were obtained from the Developmental Therapeutics Program, NCI. FDA-approved anticancer drugs are available from the NCI at http://dtp.nci.nih.gov/branches/dscb/oncology_drugset_explanation.html. Drugs and investigational agents were >95% pure by proton nuclear magnetic resonance (NMR) and liquid chromatography/mass spectrometry (LC/MS). Stock solutions were prepared at 400x in DMSO, stored at -70 degrees C, and diluted in fresh medium prior to their use. The final concentration of DMSO in cell culture wells never exceeded 0.25% (v/v). The FDA-approved anticancer drug set is available from the Developmental Therapeutics Program at https://dtp.cancer.gov/organization/dscb/obtaining/available_plates.htm. All drugs and investigational agents were tested over a range starting from a high concentration at or near the clinical Cmax and decreasing in half-log increments. If the clinical Cmax for an agent had not been determined, the highest concentration tested was 10 microM.
Cell Lines. The patient-derived cancer cell (PDC) lines: 292921-168-R-J2-PDC, K24384-001-R-PDC, and 521955-158-R2-J5-PDC pancreatic carcinomas, 556581-035-R-J1 ovarian carcinoma, 324938-238-R-J1-PDC, 855422-203-R-J1-PDC and 883617-216-R-J1-PDC urothelial bladder carcinomas, 743489-274-T-PDC renal cell carcinoma, 138582-R-J1 Merkel cell tumor, K60290-347-R-J1 and K57222-313-R-J1-PDC glioblastomas, 653999-131-R-J2-PDC, LG0703-F948-PDC, and 349418-098-R-PDC non-small cell lung carcinomas, 885512-296-R-J2-PDC, 171881-019-R-J1-PDC breast carcinomas and 186277-243-T-J2-PDC and 233499-124-R-J2-PDC colon carcinomas were obtained from the NCI Patient-Derived Models Repository (PDMR, https://pdmr.cancer.gov). The established cell lines NCI/ADR-RES (RRID:CVCL_14520 and OVCAR-5 (RRID:CVCL_1628) ovarian carcinomas, 786-O (RRID:CVCL_1051) and A498 (RRID:CVCL_A498) renal cell carcinoma, NCI-H211 (ATCC, cat. CRL-5824; RRID:CVCL_1529), NCI-H196 (ATCC, cat. CRL-5823, RRID:CVCL_1509), SW 1271 (ATCC, cat. CRL-2177, RRID:CVCL_1716) and NCI-H1876 (ATCC, cat. CRL-5902, RRID:CVCL_1503) small cell lung carcinomas, MDA-MB-231 (RRID:CVCL_0062) and MDA-MB-468 (RRID:CVCL_0419)breast carcinomas (10-12). Pooled donor human umbilical vein endothelial cells (HUVEC, Lonza, cat. CC-2519) and human mesenchymal stem cells (hMSC, Lonza, cat. PT-2501) were purchased from Lonza (Walkersville, MD).
Cell Culture. All cells were maintained in an incubator at 37 degrees C and 5% CO2 with 95% humidity. The PDC lines were cultured according to standard operating procedures established by the NCI PDMR (https://pdmr.cancer.gov). Briefly all PDCs were thawed and cultured in Matrigel-coated flasks prepared with a working solution of 1X Ham's F-12 nutrient mix, without supplementation (Invitrogen, Waltham, MA, cat. 11765054), 100 U/mL penicillin-streptomycin (Invitrogen, cat. 15140122), and 2.5% Matrigel (Corning Inc., Corning, NY, cat. 354248) for the first three passages. […]

The mark [1] stands for this setting: curve of first compound, second compound 0.1 µM.
Where [2] appears, read: curve of first compound, second compound 0.316 µM.
Where [3] appears, read: curve of first compound, second compound 1 µM.
Where [4] appears, read: curve of first compound, second compound 3.16 µM.
[5] abbreviates: curve of first compound, second compound 10 µM.

“And” between values parts separate entries of the source, which are not always exact repeats. Equal entries are not always repeated.

For `CC(C)c1c(-c2ccccc2)nc2c(C#N)c[nH]n2c1=O` + NC1CC1c1ccc(-c2cccc(O)c2)cc1, the IC50 (commonly the point on the concentration scale where inhibition reaches its midpoint) runs as follows: under setting [1], 6120 nM; under setting [2], 6660 nM; under setting [3], 2930 nM; under setting [4], 6420 nM; under setting [5], 3800 nM. In addition, the viability, T/C (commonly the result in the treated group divided by that in the control group, in per cent) is, setting by setting: (second compound 0.1 µM, first compound 0.0316 µM) 86.7%; (second compound 0.1 µM, first compound 0.1 µM) 66.5%; (second compound 0.1 µM, first compound 0.316 µM) 70.5%; (second compound 0.1 µM, first compound 1 µM) 66%; (second compound 0.1 µM, first compound 3.16 µM) 54.9%; (second compound 0.1 µM, first compound 10 µM) 45.3%. The viability, T/C was 73.7% (second compound 0.316 µM, first compound 0.0316 µM); 75.5% (second compound 0.316 µM, first compound 0.1 µM); 69.9% (second compound 0.316 µM, first compound 0.316 µM); 61.9% (second compound 0.316 µM, first compound 1 µM); 63.1% (second compound 0.316 µM, first compound 3.16 µM); 43.9% (second compound 0.316 µM, first compound 10 µM). The viability, T/C reads like this: (second compound 1 µM, first compound 0.0316 µM) 74.3%; (second compound 1 µM, first compound 0.1 µM) 64.2%; (second compound 1 µM, first compound 0.316 µM) 63.4%; (second compound 1 µM, first compound 1 µM) 69.8%; (second compound 1 µM, first compound 3.16 µM) 48.7%; (second compound 1 µM, first compound 10 µM) 37.5%. The viability, T/C runs as follows: (second compound 3.16 µM, first compound 0.0316 µM) 83.6%; (second compound 3.16 µM, first compound 0.1 µM) 57.1%; (second compound 3.16 µM, first compound 0.316 µM) 74.8%; (second compound 3.16 µM, first compound 1 µM) 63.5%; (second compound 3.16 µM, first compound 3.16 µM) 59.6%; (second compound 3.16 µM, first compound 10 µM) 44.3%. Further, the viability, T/C by setting is: (second compound 10 µM, first compound 0.0316 µM) 52.1%; (second compound 10 µM, first compound 0.1 µM) 62.4%; (second compound 10 µM, first compound 0.316 µM) 64.5%; (second compound 10 µM, first compound 1 µM) 58.8%; (second compound 10 µM, first compound 3.16 µM) 47.2%; (second compound 10 µM, first compound 10 µM) 41.7%.

`COc1cc(C2c3cc4c(cc3C(OC3OC5COC(C)OC5C(O)C3O)C3COC(=O)C23)OCO4)cc(OC)c1O` (centres undefined) + NC1CCC(NC2CC2c2ccccc2)CC1: the concentration for half-maximal inhibition (IC50) is 9.89 nM under setting [1]; 9.92 nM under setting [2]; < 9.49 nM under setting [3]; < 9.49 nM under setting [4]; < 9.49 nM under setting [5]. Besides, the viability, T/C is, setting by setting: (second compound 0.1 µM, first compound 0.00949 µM) 51.4%; (second compound 0.1 µM, first compound 0.03 µM) 14.5%; (second compound 0.1 µM, first compound 0.0949 µM) 2.21%; (second compound 0.1 µM, first compound 0.3 µM) 5.34%; (second compound 0.1 µM, first compound 0.949 µM) 1.9%; (second compound 0.1 µM, first compound 3 µM) 2.19%. Further, the viability, T/C was 51.7% (second compound 0.316 µM, first compound 0.00949 µM); 12.7% (second compound 0.316 µM, first compound 0.03 µM); 1.66% (second compound 0.316 µM, first compound 0.0949 µM); 2.34% (second compound 0.316 µM, first compound 0.3 µM); 2.35% (second compound 0.316 µM, first compound 0.949 µM); 2.14% (second compound 0.316 µM, first compound 3 µM). The viability, T/C was 46.1% (second compound 1 µM, first compound 0.00949 µM); 11.6% (second compound 1 µM, first compound 0.03 µM); 2.2% (second compound 1 µM, first compound 0.0949 µM); 2.36% (second compound 1 µM, first compound 0.3 µM); 2.33% (second compound 1 µM, first compound 0.949 µM); 2.08% (second compound 1 µM, first compound 3 µM). The viability, T/C runs as follows: (second compound 3.16 µM, first compound 0.00949 µM) 42.2%; (second compound 3.16 µM, first compound 0.03 µM) 10.5%; (second compound 3.16 µM, first compound 0.0949 µM) 2.02%; (second compound 3.16 µM, first compound 0.3 µM) 2.37%; (second compound 3.16 µM, first compound 0.949 µM) 1.62%; (second compound 3.16 µM, first compound 3 µM) 1.85%. The viability, T/C was 18.9% (second compound 10 µM, first compound 0.00949 µM); 4.24% (second compound 10 µM, first compound 0.03 µM); 0.87% (second compound 10 µM, first compound 0.0949 µM); 0.66% (second compound 10 µM, first compound 0.3 µM); 0.79% (second compound 10 µM, first compound 0.949 µM); 0.69% (second compound 10 µM, first compound 3 µM).

For `Nc1ccn(C2OC(CO)C(O)C2(F)F)c(=O)n1` (centres undefined), the viability, T/C was 2.49% and 5.54% (compound 0.000949 µM); 2.72% and 4.15% (compound 0.003 µM); 7.87% and 4.04% (compound 0.00949 µM); 2.08% and 4.19% (compound 0.03 µM); 2.85% and 4.27% (compound 0.0949 µM); 2.42% and 5% (compound 0.3 µM). Moreover, the IC50 (curve of compound) was < 0.949 nM.

Turning to `CC(C)CC(NC(=O)C(Cc1ccccc1)NC(=O)c1cnccn1)B(O)O` (centres undefined), the viability, T/C reads like this: (compound 0.000316 µM) 109% and 100%; (compound 0.001 µM) 96.9% and 86.8%; (compound 0.00316 µM) 25.4% and 29.6%; (compound 0.01 µM) 6.26% and 1.54%; (compound 0.0316 µM) 0.16% and 0.2%; (compound 0.1 µM) 0.16% and 0.32%. In addition, the IC50 (curve of compound) is 2.13 nM and 2.1 nM.
